Data reported in ChEMBL document CHEMBL1201862, “PubChem BioAssay data set” (2004).
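Five concentrations, 48 hours, 96-well plates. GI50: concentration for 50% inhibition of growth.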 The source made the active and inactive calls. Rule as the data show it: active = GI50 up to about 1.1 µM and inactive = higher.

Experiments:
Assay in all cases: inhibition of tumour cell growth, NCI panel, 48 h
HCT-116 = tested on: HCT-116
SK-OV-3 = tested on: SK-OV-3
EKVX = tested on: EKVX
SF-268 = tested on: SF-268
NCI-H460 = tested on: NCI-H460
DLD-1 = tested on: DLD-1
IGROV-1 = tested on: IGROV-1
SNB-75 = tested on: SNB-75
NCI-H23 = tested on: NCI-H23
HCT-15 = tested on: HCT-15
K562 = tested on: K562
SN12C = tested on: SN12C
UACC-257 = tested on: UACC-257
RXF 393 = tested on: RXF 393
NCI-H226 = tested on: NCI-H226

Structure (SMILES) | GI50 (HCT-116) | GI50 (SK-OV-3) | GI50 (EKVX) | GI50 (SF-268) | GI50 (NCI-H460) | GI50 (DLD-1) | GI50 (IGROV-1) | GI50 (SNB-75) | GI50 (NCI-H23) | GI50 (HCT-15) [µM] | GI50 (K562) | GI50 (SN12C) | GI50 (UACC-257) | GI50 (RXF 393) | GI50 (NCI-H226)
Nc1nc2ncn(CC(O)COC(=O)c3ccccc3)c2c(=O)[nH]1 (stereo unspecified) | > 100 µM (inactive) | > 100 µM (inactive) | > 100 µM (inactive) | > 100 µM (inactive) | > 100 µM (inactive) | > 100 µM (inactive) | > 100 µM (inactive) | > 100 µM (inactive) | > 100 µM (inactive) | > 100 | > 100 µM (inactive) | > 100 µM (inactive) | > 100 µM (inactive) | > 100 µM (inactive) | > 100 µM (inactive)
Cc1ccc(C)c(N2C(=O)C(=O)C(c3nc4ccccc4o3)C(=O)C2=O)c1 | 27.1 µM (inactive) | > 100 µM (inactive) | > 100 µM (inactive) | > 100 µM (inactive) | > 100 µM (inactive) | 22.9 µM (inactive) | 35.9 µM (inactive) | 95.1 µM (inactive) | 43.6 µM (inactive) | 99.5 | – | > 100 µM (inactive) | 32 µM (inactive) | > 100 µM (inactive) | > 100 µM (inactive)
COC(=O)c1cc2c3ccccc3n(C(C)=O)c2cn1 | > 100 µM (inactive) | > 100 µM (inactive) | 51.2 µM (inactive) | – | 35.6 µM (inactive) | > 100 µM (inactive) | 40.4 µM (inactive) | 25.6 µM (inactive) | 83.4 µM (inactive) | 68.9 | 59.2 µM (inactive) | > 100 µM (inactive) | > 100 µM (inactive) | 43.9 µM (inactive) | > 100 µM (inactive)
COC(=O)CCC1CCc2c(OC)ccc(O)c2C1=O (stereo unspecified) | > 100 µM (inactive) | > 100 µM (inactive) | > 100 µM (inactive) | > 100 µM (inactive) | > 100 µM (inactive) | > 100 µM (inactive) | > 100 µM (inactive) | 66.4 µM (inactive) | > 100 µM (inactive) | > 100 | > 100 µM (inactive) | > 100 µM (inactive) | > 100 µM (inactive) | > 100 µM (inactive) | 28.7 µM (inactive)
COc1cccc(NC(=O)C(C)(C)C)c1SSc1c(NC(=O)C(C)(C)C)cccc1OC | 22.4 µM (inactive) | > 83.4 µM (inactive) | 64.1 µM (inactive) | 18.1 µM (inactive) | 60.4 µM (inactive) | > 43.7 µM (inactive) | > 81.1 µM (inactive) | 40.6 µM (inactive) | 35 µM (inactive) | 20 | 22.9 µM (inactive) | 24.2 µM (inactive) | 22.7 µM (inactive) | 20.3 µM (inactive) | > 53.8 µM (inactive)
Cc1cccc(C2SCc3nc4ccccc4n32)c1 (stereo unspecified) | 17.7 µM (inactive) | 24.7 µM (inactive) | 18.9 µM (inactive) | 36.7 µM (inactive) | 27.7 µM (inactive) | 25.2 µM (inactive) | 24.5 µM (inactive) | 2 µM (inactive) | > 10 µM (inactive) | 18.6 | 14.2 µM (inactive) | 19.5 µM (inactive) | – | 14.9 µM (inactive) | 24.1 µM (inactive)
CC1=CC(=O)CCC2(C)C1CC[C@@H]2OC=O (stereo partly specified) | > 100 µM (inactive) | > 100 µM (inactive) | > 100 µM (inactive) | > 100 µM (inactive) | > 100 µM (inactive) | > 100 µM (inactive) | > 100 µM (inactive) | 93.5 µM (inactive) | > 100 µM (inactive) | – | > 100 µM (inactive) | > 100 µM (inactive) | > 100 µM (inactive) | > 100 µM (inactive) | > 100 µM (inactive)
CC1OC(OC2C(OC(=O)[C@]34CCC(C)(C)CC3C3=CCC5[C@@]6(C)C[C@H](O)[C@H](OC7OC(CO)C(O)C(O)C7N)[C@@](C)(C(=O)O)C6CC[C@@]5(C)C3(C)CC4)OCC(O)C2O)C(O)C(O)C1OC1OCC(O)C(O)C1O (stereo partly specified) | – | > 100 µM (inactive) | > 100 µM (inactive) | > 100 µM (inactive) | > 100 µM (inactive) | > 100 µM (inactive) | > 100 µM (inactive) | > 100 µM (inactive) | > 100 µM (inactive) | > 100 | > 100 µM (inactive) | > 100 µM (inactive) | > 100 µM (inactive) | > 100 µM (inactive) | > 100 µM (inactive)
COc1ccc(-c2cc3ccccc3[nH]c2=O)cc1OC | > 100 µM (inactive) | > 100 µM (inactive) | > 100 µM (inactive) | > 100 µM (inactive) | > 100 µM (inactive) | > 100 µM (inactive) | > 100 µM (inactive) | > 100 µM (inactive) | > 100 µM (inactive) | > 100 | > 100 µM (inactive) | > 100 µM (inactive) | > 100 µM (inactive) | 47.5 µM (inactive) | > 100 µM (inactive)
CC1=C2C(=O)C3[C@@H](CCC4=CC(=O)CC[C@@]43C)C2CC[C@]12O[C@@H]1C[C@H](C)CN[C@H]1[C@H]2C (stereo partly specified) | 30.6 µM (inactive) | > 100 µM (inactive) | 49 µM (inactive) | 31.6 µM (inactive) | 33.5 µM (inactive) | > 100 µM (inactive) | > 100 µM (inactive) | 72.8 µM (inactive) | 37.6 µM (inactive) | 48.8 | 17.4 µM (inactive) | 36.3 µM (inactive) | 36 µM (inactive) | 38.5 µM (inactive) | 70.5 µM (inactive)
CC(C)C(NCc1c2ccccc2[n+](C)c2ccccc12)C(=O)O (stereo unspecified) | 2.67 µM (inactive) | 15.5 µM (inactive) | 10.6 µM (inactive) | 2.99 µM (inactive) | 5.94 µM (inactive) | 2.39 µM (inactive) | 8.59 µM (inactive) | 1.5 µM (inactive) | 8.43 µM (inactive) | 3.68 | 0.782 µM (active) | 5.58 µM (inactive) | 5.51 µM (inactive) | 3.48 µM (inactive) | 14.7 µM (inactive)
COc1cc2c(cc1OC)[C@@H](Nc1ccc(F)cc1)C1COC(=O)[C@@H]1C2c1cc(OC)c(O)c(OC)c1 (stereo partly specified) | 3.56 µM (inactive) | 1.56 µM (inactive) | > 38.2 µM (inactive) | 2.1 µM (inactive) | < 0.0204 µM (active) | 3.13 µM (inactive) | 21.7 µM (inactive) | 2.5 µM (inactive) | 0.632 µM (active) | 1.67 | 1.19 µM (inactive) | 1.56 µM (inactive) | 5.53 µM (inactive) | 3.4 µM (inactive) | 0.231 µM (active)
CCC1(Cl)C(=O)NC(=O)N(C2CC(O)C(CO)O2)C1N=[N+]=[N-] (stereo unspecified) | – | > 100 µM (inactive) | > 100 µM (inactive) | > 100 µM (inactive) | > 100 µM (inactive) | > 100 µM (inactive) | > 100 µM (inactive) | > 100 µM (inactive) | 65.3 µM (inactive) | – | > 100 µM (inactive) | > 100 µM (inactive) | > 100 µM (inactive) | 41.2 µM (inactive) | –
CCOC(=O)CN(Cc1ccccc1)Cc1c(C(=O)c2ccccc2)c2ccccc2n1C(=O)c1ccccc1 | 32.7 µM (inactive) | > 100 µM (inactive) | > 100 µM (inactive) | > 100 µM (inactive) | > 100 µM (inactive) | > 100 µM (inactive) | > 100 µM (inactive) | 18.3 µM (inactive) | > 100 µM (inactive) | > 100 | > 100 µM (inactive) | > 100 µM (inactive) | – | > 10 µM (inactive) | 60 µM (inactive)
